Measurements: ChEMBL document CHEMBL3507680, “University of Dundee, Gates Library screen for HepG2 cell viability”

Experiment: Human HepG2 cell viability assay in 384 well format
Type: toxicity, cell-based
Design: dose 125 nL, time 70.5 hour; cytotoxicity at 70.5 h: concentration not given beside the values
Conditions: HepG2 cells, read-out: Inhibition

Going from `Cc1ccc(S(=O)(=O)N2C[C@@H]3C[C@@H](NC(=O)C(C)(C)C)[C@@H]3C2)cc1` to `CCN(CC)S(=O)(=O)c1ccc(CNC(=O)N2CCC(C#N)CC2)cc1`, the cytotoxicity at 70.5 h rises from -16.5% to -6.61%.

Compared with `O=C(c1cnco1)N1C[C@@H]2CC[C@H](Oc3cccc(F)c3)[C@@H]2C1`, `COCC(=O)N1CCC(c2cccc(Cc3ccc(F)cc3)n2)CC1` is lower in cytotoxicity at 70.5 h: -3.26% for the first, -6.39% for the second.

Going from `Cc1ncc(CNC(=O)CCc2cccc(F)c2)c(C2CCCN2C)n1` (stereo not drawn) to `NC(=O)CC1CCCN(c2cncc(SCc3ccccc3)n2)C1` (stereo not drawn), the cytotoxicity at 70.5 h rises from -2.51% to -1.35%.

Going from `O=C(Cc1ccc(F)cc1)N1CCCCC1c1ccn2ccnc2n1` (stereo not drawn) to `O=C1CC(C(=O)NCc2ccccc2Oc2ccccc2F)CCN1` (stereo not drawn), the cytotoxicity at 70.5 h rises from -12% to -1.83%.

Going from `Cc1nccc(C2CN(Cc3cc[nH]n3)CCO2)n1` (stereo not drawn) to `COC(=O)c1ccc(CN2CCC(c3n[nH]c(C)n3)CC2)s1`, the cytotoxicity at 70.5 h rises from -15.2% to -0.468%.

First: CC(=O)N1CCN([C@@H]2CC[C@@H](NC(=O)c3cncc(C)c3)[C@H]2O)CC1
Second: CC(=O)N1CCC(NC(=O)CN2CCCc3c(F)ccc(C)c32)CC1
The cytotoxicity at 70.5 h of the first is higher: 24% for the first, -4.42% for the second.

Going from `CC(=O)N1CCCC1c1ccc(-c2c(C)noc2C)cn1` (stereo not drawn) to `Cc1noc(C)c1-c1cccc(CC2CCN(C(=O)CCC(=O)O)C2)n1` (stereo not drawn), the cytotoxicity at 70.5 h falls from -9.29% to -11.7%.

Going from `CNC(=O)CCc1cc(C)nc(C2CCCN2)n1` (stereo not drawn) to `Cc1cc(C)n(C2CN(CCC(N)=O)C2)n1`, the cytotoxicity at 70.5 h rises from -12.5% to 0.833%.

First: CCn1cc(CN2CC3CCCN3C[C@H]2C)c(C)n1 (stereo partly drawn)
Second: COc1ccc(C)cc1CN1CCn2cccc2C1C (stereo not drawn)
The cytotoxicity at 70.5 h of the first is higher: 2.28% for the first, -1.19% for the second.

Compared with `CNC(=O)C1(CCCc2cccnc2)CCCCN1` (stereo not drawn), `COc1cccc(C2(C(=O)NC3CCc4nccn4C3)CCCC2)c1` (stereo not drawn) is higher in cytotoxicity at 70.5 h: -1.91% for the first, 10.9% for the second.

Going from `Cc1ccccc1-c1cncc(C2CCN(C(=O)CN(C)C)CC2)n1` to `NC(=O)CC1CCN(c2cncc(OCc3ccccc3)n2)CC1`, the cytotoxicity at 70.5 h falls from 23.3% to -5.14%.

First: CN(CCOCC1CC1)C(=O)Nc1ccc(C#N)c(Cl)c1
Second: CN(CCOCC1CC1)C(=O)Nc1ccc([S+](C)[O-])c(F)c1 (stereo not drawn)
The cytotoxicity at 70.5 h of the first is lower: -0.0375% for the first, 21.5% for the second.

Going from `CC(C)(C)n1ncc(NCCc2ccccc2C(F)(F)F)c(Cl)c1=O` to `CC(C)(C)n1ncc(NCC(O)c2ccc(F)c(F)c2)c(Cl)c1=O` (stereo not drawn), the cytotoxicity at 70.5 h falls from 33% to -0.243%.

First: CCOCC(=O)Nc1cc(-c2cccc(F)c2F)n[nH]1
Second: Cc1ccc(F)c(S(=O)(=O)NCCc2nnc[nH]2)c1
The cytotoxicity at 70.5 h of the first is lower: -7.88% for the first, 15.4% for the second.

Going from `CC(C)OCc1ccccc1CNC(=O)C(C)(C)C` to `COc1cc(C(=O)O)ccc1OCC(=O)NCCc1ccccc1`, the cytotoxicity at 70.5 h falls from 0.195% to -2.71%.

Going from `CN(CCOCC1CC1)C(=O)Nc1ccc([S+](C)[O-])cc1` (stereo not drawn) to `CC(=O)Nc1ccc(CNCC(O)c2ccc(C)cc2)cc1` (stereo not drawn), the cytotoxicity at 70.5 h falls from -0.588% to -8.81%.

First: COc1cccc(C(=O)NS(=O)(=O)c2cc(Cl)sc2Cl)c1OC(F)F
Second: COc1ccsc1C(=O)NC1CCN(c2cccc(F)c2)CC1
The cytotoxicity at 70.5 h of the first is lower: -7.95% for the first, 21.7% for the second.

Compared with `N#CC1(NC(=O)COC(=O)Cc2cc(Cl)c3c(c2)OCCO3)CCCC1`, `N#CC1(NC(=O)Cc2cc(Cl)c3c(c2)OCCO3)CCC1` is lower in cytotoxicity at 70.5 h: 16.4% for the first, -10.5% for the second.

Compared with `CC(=O)Nc1ccc(CNCC(O)c2ccc(Cl)cc2)cc1` (stereo not drawn), `COCCCN1Cc2cccc(NC(=O)c3ccccc3Cl)c2C1` is higher in cytotoxicity at 70.5 h: -5.19% for the first, 12.9% for the second.

First: CC(Nc1cccc(F)c1C#N)c1cccc(S(N)(=O)=O)c1 (stereo not drawn)
Second: CC(Nc1ccc(C#N)cc1F)c1cccc(S(N)(=O)=O)c1 (stereo not drawn)
The cytotoxicity at 70.5 h of the first is lower: -8.67% for the first, 16.2% for the second.

First: Cc1nc(C)c(C(C)NCc2c(C(C)C)nn(C)c2N(C)C)s1 (stereo not drawn)
Second: COc1c(CNC(C)c2sc(C)nc2C)c(C(C)C)nn1C (stereo not drawn)
The cytotoxicity at 70.5 h of the first is lower: -0.665% for the first, 23.8% for the second.

Going from `CN(Cc1ccccn1)C(=O)C(c1ccccc1)N1CCSCC1` (stereo not drawn) to `CN(Cc1cscn1)C(=O)C(c1ccccc1)N1CCSCC1` (stereo not drawn), the cytotoxicity at 70.5 h rises from -7.59% to 21.5%.

First: COCCCOc1ccc(C(=O)N(C)Cc2cccc(O)c2)cn1
Second: COCCCN(C)c1cc(C(F)(F)F)nc(-c2cccnc2)n1
The cytotoxicity at 70.5 h of the first is lower: -8.37% for the first, -5.74% for the second.

Compared with `NS(=O)(=O)CCCNC(=O)c1cnc(-c2ccsc2)s1`, `CCCN(CC(=O)NC)C(=O)c1ccc(-c2nc(C)cs2)cc1` is lower in cytotoxicity at 70.5 h: -6.58% for the first, -10.1% for the second.

First: COc1cc(NC(=O)NCc2nccn2C)ccc1Br
Second: CCCn1cc(NC(=O)Nc2ccc(F)c(C(=O)NC)c2)cn1
The cytotoxicity at 70.5 h of the first is higher: -4.24% for the first, -4.76% for the second.

Going from `O=C(O)c1cc(/C=C/c2cccc3ccccc23)ncn1` to `COc1ncnc(N)c1CNCCc1ccc(-n2cccn2)cc1`, the cytotoxicity at 70.5 h rises from -7.2% to -1.5%.

Going from `CC(O)CN(C)c1cc(C(F)(F)F)nc(-c2cccnc2)n1` (stereo not drawn) to `COc1ccc(C(C)CCNC2CCN(c3ccccn3)CC2)cc1` (stereo not drawn), the cytotoxicity at 70.5 h rises from -3.49% to 22%.

Compared with `Cc1cnn(CCNCc2c(C(C)C)nn(C)c2Cl)c1`, `Cc1cc(CNS(=O)(=O)CCCC#N)ccc1N(C)C` is higher in cytotoxicity at 70.5 h: -2.72% for the first, 0.915% for the second.

Compared with `COCC1CCCN(c2cncc(OCc3ccccc3)n2)C1` (stereo not drawn), `c1csc(N2CCN(c3ncnc4sccc34)CC2)n1` is lower in cytotoxicity at 70.5 h: 6.39% for the first, -7.71% for the second.
